The numbers were not newly measured in publication PMC12824232 (Nature Communications, 2025), which cites them from elsewhere.

Each structure is given as a SMILES string.

Series [1] concerns ER+/HER2− advanced breast cancer. To be noted: patients with ESR1 mutations, phase 3 trial.
Series [2] deals with patients with ER+/HER2− advanced breast cancer. The following applies: phase 2 trial.

Regarding `CCNCCc1ccc(CN(CC)c2cc(OC)ccc2[C@@H]2CCc3cc(O)ccc3C2)cc1` [elacestrant], in series [1], the “median PFS” value was 3.8 months.

As for `O=C1CC[C@H](N2Cc3cc(N4CCN(CC5CCN(c6ccc([C@@H]7c8ccc(O)cc8CC[C@@H]7c7ccccc7)cc6)CC5)CC4)ccc3C2=O)C(=O)N1` [vepdegestrant], the “patients with Grade 3/4 TRAEs” value in series [2] is given as 6%.
